From ChEMBL document CHEMBL5257053, “Discovery of Orally Bioavailable FGFR2/FGFR3 Dual Inhibitors via Structure-Guided Scaffold Repurposing Approach” (ACS Med Chem Lett, 2023)
In brackets after ≈: the same amount, converted by molar mass.

Legend:
[1] = Protein binding in human plasma assessed as free fraction after 2 hrs by equilibrium dialysis method; format: ADME, cell-free
[2] = Half life in cynomolgus monkey at 3 mg/kg, po or 1 mg/kg, iv measured up to 24 hrs; format: ADME, organism-based, Macaca fascicularis; conditions: in vivo
[3] = Cmax in Sprague-Dawley rat at 3 mg/kg, po measured up to 24 hrs; format: ADME, organism-based; parameters: dose 3 mg/kg, time < 24 hrs, route po; conditions: in vivo
[4] = target: Fibroblast growth factor receptor 4 (Homo sapiens, UniProt P22455); test: Inhibition of recombinant human FGFR4 (460 to 802 residues) using biotin-EQEDEPEGDYFEWLE-amide as substrate preincubated for 5 to 10 mins followed by substrate addition and measured after 1 hr in presence of ATP by HTRF assay
Fibroblast growth factor receptor 4, sequence (P22455 whole entry, the tested form may be a part): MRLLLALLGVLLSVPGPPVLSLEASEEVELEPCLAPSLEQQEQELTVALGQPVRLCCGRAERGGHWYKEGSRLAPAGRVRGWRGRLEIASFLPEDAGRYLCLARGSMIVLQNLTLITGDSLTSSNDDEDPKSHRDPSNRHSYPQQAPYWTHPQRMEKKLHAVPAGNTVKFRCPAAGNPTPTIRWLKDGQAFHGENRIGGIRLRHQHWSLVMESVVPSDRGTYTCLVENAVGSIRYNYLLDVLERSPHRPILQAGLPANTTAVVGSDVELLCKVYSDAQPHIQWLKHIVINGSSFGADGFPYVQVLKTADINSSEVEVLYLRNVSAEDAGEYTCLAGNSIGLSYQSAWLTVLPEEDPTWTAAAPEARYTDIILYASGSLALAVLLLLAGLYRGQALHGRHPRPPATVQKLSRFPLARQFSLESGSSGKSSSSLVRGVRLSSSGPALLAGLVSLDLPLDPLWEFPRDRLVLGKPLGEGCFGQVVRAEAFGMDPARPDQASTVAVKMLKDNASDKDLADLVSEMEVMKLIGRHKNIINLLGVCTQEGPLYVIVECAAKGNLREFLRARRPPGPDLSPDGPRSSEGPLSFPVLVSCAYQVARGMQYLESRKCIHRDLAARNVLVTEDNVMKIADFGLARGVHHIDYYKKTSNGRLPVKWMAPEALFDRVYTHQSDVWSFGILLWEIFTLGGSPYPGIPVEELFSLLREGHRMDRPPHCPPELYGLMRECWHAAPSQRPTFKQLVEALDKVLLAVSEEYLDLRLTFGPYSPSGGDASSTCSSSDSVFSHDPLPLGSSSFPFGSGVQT

[5] = target: T1, Cytochrome P450 2B6 (Homo sapiens, UniProt P20813); test: Inhibition of CYP2B6 (unknown origin); format: ADME
T1 sequence (P20813 whole entry): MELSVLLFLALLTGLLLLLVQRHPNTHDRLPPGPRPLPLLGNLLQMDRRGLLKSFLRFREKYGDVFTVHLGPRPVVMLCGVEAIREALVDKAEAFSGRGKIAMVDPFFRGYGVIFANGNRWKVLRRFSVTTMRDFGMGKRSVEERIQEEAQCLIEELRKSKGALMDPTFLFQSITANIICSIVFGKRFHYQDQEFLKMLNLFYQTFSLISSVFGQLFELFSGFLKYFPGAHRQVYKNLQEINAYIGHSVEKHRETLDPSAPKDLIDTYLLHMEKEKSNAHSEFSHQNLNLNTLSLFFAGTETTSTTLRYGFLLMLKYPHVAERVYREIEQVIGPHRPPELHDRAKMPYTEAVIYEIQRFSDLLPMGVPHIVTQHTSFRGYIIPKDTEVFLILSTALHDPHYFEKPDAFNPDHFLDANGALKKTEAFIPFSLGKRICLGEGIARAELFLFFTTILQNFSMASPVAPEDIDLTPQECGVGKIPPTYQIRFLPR

[6] = AUCinfinity in cynomolgus monkey at 3 mg/kg, po measured up to 24 hrs; format: ADME, organism-based, Macaca fascicularis; parameters: time < 24 hrs, dose 3 mg/kg, route po; conditions: in vivo
[7] = Permeability in human Caco-2 cells incubated for 120 mins by LC-MS/MS analysis; format: ADME, cell-based; conditions: read-out: permeability
[8] = target: Cytochrome P450 3A4 (Homo sapiens, UniProt P08684); test: Inhibition of CYP3A4 (unknown origin); format: ADME
Cytochrome P450 3A4, sequence (P08684 whole entry): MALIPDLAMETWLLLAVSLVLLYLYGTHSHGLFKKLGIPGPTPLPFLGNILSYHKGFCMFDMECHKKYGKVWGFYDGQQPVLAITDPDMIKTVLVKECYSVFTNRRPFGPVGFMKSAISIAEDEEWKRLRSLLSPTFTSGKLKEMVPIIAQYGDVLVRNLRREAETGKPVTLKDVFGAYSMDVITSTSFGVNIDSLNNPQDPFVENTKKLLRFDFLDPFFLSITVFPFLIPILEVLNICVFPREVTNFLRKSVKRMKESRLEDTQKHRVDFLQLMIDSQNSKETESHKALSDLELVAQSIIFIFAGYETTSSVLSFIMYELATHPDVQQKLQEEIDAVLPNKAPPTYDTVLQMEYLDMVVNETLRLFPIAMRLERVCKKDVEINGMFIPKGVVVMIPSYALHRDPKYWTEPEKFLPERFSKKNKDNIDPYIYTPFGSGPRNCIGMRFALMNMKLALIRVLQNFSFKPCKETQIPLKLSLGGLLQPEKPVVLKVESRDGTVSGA

[9] = target: Vascular endothelial growth factor receptor 2 (Homo sapiens, UniProt P35968); test: Inhibition of KDR (unknown origin) using peptide substrate incubated for 90 mins in presence of ATP by HTRF method
[10] = target: T2, Fibroblast growth factor receptor 2 (Homo sapiens, UniProt P21802); test: Inhibition of recombinant human FGFR2 (400 to 821 residues) using biotin-EQEDEPEGDYFEWLE-amide as substrate preincubated for 5 to 10 mins followed by substrate addition and measured after 1 hr in presence of ATP by HTRF assay
T2 sequence (P21802 whole entry, the tested form may be a part): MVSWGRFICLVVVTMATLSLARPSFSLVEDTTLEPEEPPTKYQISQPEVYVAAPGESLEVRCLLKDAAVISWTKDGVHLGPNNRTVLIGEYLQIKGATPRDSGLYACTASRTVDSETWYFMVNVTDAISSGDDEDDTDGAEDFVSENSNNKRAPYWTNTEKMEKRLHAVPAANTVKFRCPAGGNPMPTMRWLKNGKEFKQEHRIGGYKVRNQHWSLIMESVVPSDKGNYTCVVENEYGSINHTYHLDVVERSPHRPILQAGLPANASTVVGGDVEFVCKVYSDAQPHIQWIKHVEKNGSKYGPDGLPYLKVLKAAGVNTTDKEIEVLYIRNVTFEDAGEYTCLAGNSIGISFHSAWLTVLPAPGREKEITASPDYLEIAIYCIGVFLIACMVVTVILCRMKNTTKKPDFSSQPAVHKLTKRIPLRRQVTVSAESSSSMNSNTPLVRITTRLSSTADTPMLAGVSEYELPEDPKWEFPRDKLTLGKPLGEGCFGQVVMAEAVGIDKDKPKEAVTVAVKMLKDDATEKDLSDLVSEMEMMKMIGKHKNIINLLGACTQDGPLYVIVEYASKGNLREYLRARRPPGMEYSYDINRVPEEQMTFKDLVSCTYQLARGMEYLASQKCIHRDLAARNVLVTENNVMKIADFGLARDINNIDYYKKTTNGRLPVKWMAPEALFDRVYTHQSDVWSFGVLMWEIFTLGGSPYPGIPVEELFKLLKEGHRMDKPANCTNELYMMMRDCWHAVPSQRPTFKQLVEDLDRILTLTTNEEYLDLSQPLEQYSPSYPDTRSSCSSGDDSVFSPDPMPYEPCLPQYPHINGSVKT

[11] = target: T3, Cytochrome P450 1A2 (Homo sapiens, UniProt P05177); test: Inhibition of CYP1A2 (unknown origin); format: ADME
T3 sequence (P05177 whole entry): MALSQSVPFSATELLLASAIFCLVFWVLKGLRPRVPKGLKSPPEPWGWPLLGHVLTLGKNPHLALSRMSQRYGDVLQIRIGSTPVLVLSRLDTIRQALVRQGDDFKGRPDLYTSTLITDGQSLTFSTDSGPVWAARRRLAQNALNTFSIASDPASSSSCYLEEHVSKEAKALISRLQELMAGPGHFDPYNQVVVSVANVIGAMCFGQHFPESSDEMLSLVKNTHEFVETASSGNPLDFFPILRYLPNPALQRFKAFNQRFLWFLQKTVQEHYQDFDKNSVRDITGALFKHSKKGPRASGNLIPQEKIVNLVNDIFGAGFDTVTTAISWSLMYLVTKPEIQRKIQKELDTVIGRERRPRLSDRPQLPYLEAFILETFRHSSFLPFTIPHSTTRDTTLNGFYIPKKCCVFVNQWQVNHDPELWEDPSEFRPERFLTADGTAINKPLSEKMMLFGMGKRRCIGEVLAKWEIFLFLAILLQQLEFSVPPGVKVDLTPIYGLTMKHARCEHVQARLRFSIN

[12] = Clearance in cynomolgus monkey at 3 mg/kg, po or 1 mg/kg, iv measured up to 24 hrs; format: ADME, organism-based, Macaca fascicularis; conditions: in vivo
[13] = AUCinfinity in Sprague-Dawley rat at 3 mg/kg, po measured up to 24 hrs; format: ADME, organism-based; parameters: dose 3 mg/kg, time < 24 hrs, route po; conditions: in vivo
[14] = Cmax in cynomolgus monkey at 3 mg/kg, po measured up to 24 hrs; format: ADME, organism-based, Macaca fascicularis; parameters: time < 24 hrs, dose 3 mg/kg, route po; conditions: in vivo
[15] = Oral bioavailability in cynomolgus monkey at 3 mg/kg measured up to 24 hrs; format: ADME, organism-based, Macaca fascicularis; conditions: in vivo
[16] = Solubility of compound in stimulated gastric fluid; format: ADME; conditions: simulated gastric fluid
[17] = Half life in Sprague-Dawley rat at 3 mg/kg, po or 1 mg/kg, iv measured up to 24 hrs; format: ADME, organism-based; conditions: in vivo
[18] = Oral bioavailability in Sprague-Dawley rat at 3 mg/kg measured up to 24 hrs; format: ADME, organism-based; conditions: in vivo
[19] = Solubility of compound in fasted state stimulated intestinal fluid; format: ADME; conditions: fasted state simulated intestinal fluid
[20] = target: Fibroblast growth factor receptor 3 (Mus musculus, UniProt Q61851); test: Inhibition of FGFR3 phosphorylation in mouse BaF3 cells incubated for 2 hrs; format: cell-based
Fibroblast growth factor receptor 3, sequence (Q61851 whole entry): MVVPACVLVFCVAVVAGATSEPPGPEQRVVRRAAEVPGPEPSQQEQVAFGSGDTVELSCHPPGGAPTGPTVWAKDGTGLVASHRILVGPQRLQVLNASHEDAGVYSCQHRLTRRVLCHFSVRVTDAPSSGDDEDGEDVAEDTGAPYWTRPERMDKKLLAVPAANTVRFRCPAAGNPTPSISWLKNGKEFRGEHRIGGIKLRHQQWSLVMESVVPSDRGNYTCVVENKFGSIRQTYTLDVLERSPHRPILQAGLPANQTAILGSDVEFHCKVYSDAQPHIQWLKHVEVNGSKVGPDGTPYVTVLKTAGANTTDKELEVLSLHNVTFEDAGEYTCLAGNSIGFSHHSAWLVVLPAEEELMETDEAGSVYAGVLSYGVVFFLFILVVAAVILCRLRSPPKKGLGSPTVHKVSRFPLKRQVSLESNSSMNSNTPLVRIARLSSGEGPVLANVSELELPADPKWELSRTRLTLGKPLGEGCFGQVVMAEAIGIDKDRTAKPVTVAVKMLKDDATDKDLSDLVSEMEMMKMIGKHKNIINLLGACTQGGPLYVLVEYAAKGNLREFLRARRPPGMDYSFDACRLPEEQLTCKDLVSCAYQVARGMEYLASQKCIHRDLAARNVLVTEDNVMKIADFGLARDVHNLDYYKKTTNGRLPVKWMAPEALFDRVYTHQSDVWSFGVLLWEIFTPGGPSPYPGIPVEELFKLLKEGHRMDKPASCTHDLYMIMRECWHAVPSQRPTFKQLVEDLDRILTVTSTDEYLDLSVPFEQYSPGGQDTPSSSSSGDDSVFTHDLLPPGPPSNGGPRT

[21] = Drug concentration in NSG mouse plasma at 30 mg/kg, po measured after 2 hrs; format: ADME, organism-based
[22] = target: hERG (KCNH2) (Homo sapiens, UniProt Q12809); test: Inhibition of human ERG at 10 uM relative to control; format: toxicity
hERG (KCNH2), sequence (Q12809 whole entry): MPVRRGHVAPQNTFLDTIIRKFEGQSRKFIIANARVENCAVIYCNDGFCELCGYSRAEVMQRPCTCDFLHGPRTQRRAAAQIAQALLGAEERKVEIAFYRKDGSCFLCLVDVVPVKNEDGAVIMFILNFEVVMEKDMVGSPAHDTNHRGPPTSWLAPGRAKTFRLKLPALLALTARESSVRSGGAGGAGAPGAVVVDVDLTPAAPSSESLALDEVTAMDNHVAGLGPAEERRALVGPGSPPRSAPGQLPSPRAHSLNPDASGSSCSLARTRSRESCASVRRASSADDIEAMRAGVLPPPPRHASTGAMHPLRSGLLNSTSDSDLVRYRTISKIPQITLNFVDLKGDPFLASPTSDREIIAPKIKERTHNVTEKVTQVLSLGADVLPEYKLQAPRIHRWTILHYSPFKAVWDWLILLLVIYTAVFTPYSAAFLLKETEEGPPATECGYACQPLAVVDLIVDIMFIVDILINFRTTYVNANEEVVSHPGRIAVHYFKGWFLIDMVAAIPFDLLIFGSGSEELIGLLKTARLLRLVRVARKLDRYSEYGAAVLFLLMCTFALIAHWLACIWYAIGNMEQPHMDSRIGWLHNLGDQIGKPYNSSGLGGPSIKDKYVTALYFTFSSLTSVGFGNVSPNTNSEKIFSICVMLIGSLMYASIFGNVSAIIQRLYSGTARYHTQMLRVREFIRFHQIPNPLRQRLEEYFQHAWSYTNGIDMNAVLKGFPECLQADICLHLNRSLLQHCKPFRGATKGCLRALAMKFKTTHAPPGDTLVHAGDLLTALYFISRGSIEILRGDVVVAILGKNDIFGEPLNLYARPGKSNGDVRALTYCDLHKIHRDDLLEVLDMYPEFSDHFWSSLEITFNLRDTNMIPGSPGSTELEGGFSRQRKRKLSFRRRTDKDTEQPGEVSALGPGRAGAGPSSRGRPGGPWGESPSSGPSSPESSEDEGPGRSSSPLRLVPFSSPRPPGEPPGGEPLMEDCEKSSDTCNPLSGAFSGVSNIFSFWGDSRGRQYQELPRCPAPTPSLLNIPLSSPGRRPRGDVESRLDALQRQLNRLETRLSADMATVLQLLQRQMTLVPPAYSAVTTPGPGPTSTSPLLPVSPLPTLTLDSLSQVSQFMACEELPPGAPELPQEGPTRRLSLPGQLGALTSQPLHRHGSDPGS

[23] = Metabolic stability in human liver microsomes assessed as intrinsic clearance at 1 uM preincubated for 2 mins followed by NADPH addition and measured upto 30 mins by LC-MS/MS analysis; format: ADME, Microsome; conditions: time < 32 min, read-out: CLH (converted)
[24] = Volume of distribution at steady state in Sprague-Dawley rat at 3 mg/kg, po or 1 mg/kg, iv measured up to 24 hrs; format: ADME, organism-based; conditions: in vivo
[25] = target: T4, Activin receptor type-1 (Homo sapiens, UniProt Q04771); test: Inhibition of recombinant human ALK2 (147 to end residues) expressed in Sf9 infected baculovirus expression system using TRF0130 as substrate incubated for 3 hrs in presence of […]
T4 sequence (Q04771 whole entry): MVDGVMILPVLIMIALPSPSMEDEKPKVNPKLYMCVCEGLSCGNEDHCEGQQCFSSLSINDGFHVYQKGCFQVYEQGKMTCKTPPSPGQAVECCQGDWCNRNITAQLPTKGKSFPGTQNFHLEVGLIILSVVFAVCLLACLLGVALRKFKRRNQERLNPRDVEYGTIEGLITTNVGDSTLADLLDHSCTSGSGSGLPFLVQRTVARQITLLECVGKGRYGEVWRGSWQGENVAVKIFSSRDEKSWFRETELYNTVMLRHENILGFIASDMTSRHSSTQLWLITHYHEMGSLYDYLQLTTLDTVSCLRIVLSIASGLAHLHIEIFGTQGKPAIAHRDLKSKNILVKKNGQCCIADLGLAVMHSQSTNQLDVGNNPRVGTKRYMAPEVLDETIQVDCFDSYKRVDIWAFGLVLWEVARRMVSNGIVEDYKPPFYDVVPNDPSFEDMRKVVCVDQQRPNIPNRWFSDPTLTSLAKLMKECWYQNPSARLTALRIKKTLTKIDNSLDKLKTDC

[26] = Volume of distribution at steady state in cynomolgus monkey at 3 mg/kg, po or 1 mg/kg, iv measured up to 24 hrs; format: ADME, organism-based, Macaca fascicularis; conditions: in vivo
[27] = Clearance in Sprague-Dawley rat at 3 mg/kg, po or 1 mg/kg, iv measured up to 24 hrs; format: ADME, organism-based; conditions: in vivo
[28] = target: Cytochrome P450 2D6 (Homo sapiens, UniProt P10635); test: Inhibition of CYP2D6 (unknown origin); format: ADME
Cytochrome P450 2D6, sequence (P10635 whole entry): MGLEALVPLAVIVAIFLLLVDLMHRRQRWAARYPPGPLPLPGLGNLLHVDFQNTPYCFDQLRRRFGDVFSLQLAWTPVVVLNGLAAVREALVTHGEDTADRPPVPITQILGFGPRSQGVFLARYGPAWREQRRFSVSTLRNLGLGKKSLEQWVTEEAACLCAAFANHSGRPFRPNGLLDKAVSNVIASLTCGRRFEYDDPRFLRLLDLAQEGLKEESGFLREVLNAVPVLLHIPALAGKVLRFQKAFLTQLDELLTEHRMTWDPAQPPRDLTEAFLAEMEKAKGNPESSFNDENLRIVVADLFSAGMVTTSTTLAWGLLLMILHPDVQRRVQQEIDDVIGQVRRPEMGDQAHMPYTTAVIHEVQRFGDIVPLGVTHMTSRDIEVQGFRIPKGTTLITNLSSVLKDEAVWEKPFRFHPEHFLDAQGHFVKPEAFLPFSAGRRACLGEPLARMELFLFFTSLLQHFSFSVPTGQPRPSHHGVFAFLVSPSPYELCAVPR

[29] = target: Cytochrome P450 2C9 (Homo sapiens, UniProt P11712); test: Inhibition of CYP2C9 (unknown origin); format: ADME
Cytochrome P450 2C9, sequence (P11712 whole entry): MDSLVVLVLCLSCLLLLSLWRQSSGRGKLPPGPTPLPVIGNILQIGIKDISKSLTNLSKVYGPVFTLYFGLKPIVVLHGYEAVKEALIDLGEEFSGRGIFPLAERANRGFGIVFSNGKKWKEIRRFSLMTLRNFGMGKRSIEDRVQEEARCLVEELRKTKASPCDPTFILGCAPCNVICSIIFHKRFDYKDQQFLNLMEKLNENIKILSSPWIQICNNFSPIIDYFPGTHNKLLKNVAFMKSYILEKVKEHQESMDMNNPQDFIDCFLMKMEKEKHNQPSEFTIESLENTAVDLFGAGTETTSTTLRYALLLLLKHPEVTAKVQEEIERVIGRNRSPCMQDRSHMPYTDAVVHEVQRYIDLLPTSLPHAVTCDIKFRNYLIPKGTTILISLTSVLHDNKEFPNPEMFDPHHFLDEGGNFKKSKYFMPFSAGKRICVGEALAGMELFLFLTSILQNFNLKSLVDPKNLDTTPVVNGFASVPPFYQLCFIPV

[30] = target: T2, Fibroblast growth factor receptor 2; test: Inhibition of FGFR2 in human KATOIII cells incubated for 1 hr; format: cell-based, KATO III stomach cancer cell line

Q: For `CN1C[C@@H]2CC[C@H](C1=O)N2c1ncc2[nH]nc(-c3cnn(C4CCC4)c3)c2n1`, which fraction unbound at 2 h [1] is on record?
A: 0.11

Q: And the half-life [2]?
A: 3.2 h

Q: And the Cmax [3]?
A: 5550 nM

Q: What about the IC50 [4] of the same molecule?
A: 157 nM

Q: And the IC50 [5]?
A: > 10000 nM

Q: What about the AUC(0-inf) [6] of the same molecule?
A: 2.21 µM·h

Q: What about the Papp at 2 h [7] of the same molecule?
A: 4 ×10⁻⁶ cm/s

Q: What about the IC50 [8] of the same molecule?
A: > 10000 nM

Q: And the IC50 [9]?
A: 184 nM

Q: What about the IC50 [10] of the same molecule?
A: 1.8 nM

Q: What about the IC50 [11] of the same molecule?
A: > 10000 nM

Q: And the CL [12]?
A: 12 mL/min/kg

Q: And the AUC(0-inf) [13]?
A: 5.82 µM·h

Q: What about the Cmax [14] of the same molecule?
A: 825 nM

Q: What about the bioavailability [15] of the same molecule?
A: 20%

Q: What about the solubility [16] of the same molecule?
A: > 400 µg/mL

Q: What about the half-life [17] of the same molecule?
A: 6.6 h

Q: What about the bioavailability [18] of the same molecule?
A: 100%

Q: And the solubility [19]?
A: 557 µg/mL (≈ 1470 µM)

Q: What about the IC50 [20] of the same molecule?
A: 16 nM

Q: What about the concentration at 2 h [21] of the same molecule?
A: 760 nM

Q: What about the inhibition at 10 µM [22] of the same molecule?
A: < 10%

Q: What about the CLint scaled at 1 µM [23] of the same molecule?
A: 16.7 mL/min/kg

Q: And the Vdss [24]?
A: 2.6 L/kg

Q: What about the IC50 [25] of the same molecule?
A: 477 nM

Q: And the Vdss [26]?
A: 0.66 L/kg

Q: What about the CL [27] of the same molecule?
A: 23.3 mL/min/kg

Q: And the IC50 [28]?
A: > 10000 nM

Q: And the IC50 [29]?
A: > 10000 nM

Q: What about the IC50 [30] of the same molecule?
A: 24 nM
